Laboratory results reported in patent US20240270725A1, “MAGL INHIBITORS” (Hoffmann-La Roche Inc., priority 2021, published 2024).
pIC50: −log10 of the molar value.

What was measured:
[1] = biological target: T1, MAGL (Mus musculus, UniProt O35678); experiment: 2-AG assay, MAGL inhibitory activity (mouse); type: biochemical
T1 sequence (O35678 1-303): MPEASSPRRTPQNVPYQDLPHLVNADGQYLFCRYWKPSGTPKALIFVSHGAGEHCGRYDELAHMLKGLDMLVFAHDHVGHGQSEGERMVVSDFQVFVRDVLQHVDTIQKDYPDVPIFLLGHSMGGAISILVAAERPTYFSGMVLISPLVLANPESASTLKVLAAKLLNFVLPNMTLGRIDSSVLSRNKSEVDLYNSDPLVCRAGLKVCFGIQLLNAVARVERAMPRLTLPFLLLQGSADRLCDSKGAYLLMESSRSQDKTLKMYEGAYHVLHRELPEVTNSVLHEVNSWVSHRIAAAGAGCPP
Method: (§1) Compounds were profiled for MAGL inhibitory activity by determining the enzymatic activity by following the hydrolysis of the natural substrate, 2-arachidonoylglycerol, resulting in arachidonic acid, which can be followed by mass spectrometry. This assay is hereinafter abbreviated “2-AG assay”.
(§2) A C18 SPE cartridge (G9205A) was used in an acetonitrile/water liquid setup. […] The activity of the compounds was calculated based on the ratio of intensities [arachidonic acid/d8-arachidonic acid].

[2] = biological target: T2, MAGL (Homo sapiens, UniProt Q99685); experiment: 2-AG assay, MAGL inhibitory activity (human); type: biochemical
T2 sequence (Q99685 1-303): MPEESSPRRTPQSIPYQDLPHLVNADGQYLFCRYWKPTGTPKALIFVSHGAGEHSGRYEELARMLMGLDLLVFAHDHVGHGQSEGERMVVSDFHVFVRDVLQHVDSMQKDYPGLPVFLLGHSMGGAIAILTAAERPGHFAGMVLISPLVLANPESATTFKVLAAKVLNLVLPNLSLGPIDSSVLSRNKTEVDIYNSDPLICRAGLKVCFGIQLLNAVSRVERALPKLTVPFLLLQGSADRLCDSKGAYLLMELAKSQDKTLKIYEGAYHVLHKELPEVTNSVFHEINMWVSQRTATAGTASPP
Method: as §1, §2

[3] = biological target: T1, MAGL; experiment: Drug occupancy study by PET with [^18F]-II; type: in vivo
Method: To investigate the utility of [^18F]-II, a drug occupancy study was conducted after validating the in vitro/vivo specificity. The potent and selective covalent MAGL inhibitor PF-06795071, originally developed for anti-inflammatory treatments, was applied for this study (McAllister LA, Butler C R, Mente S, et al. Discovery of Trifluoromethyl Glycol Carbamates as Potent and Selective Covalent Monoacylglycerol Lipase (MAGL) Inhibitors for Treatment of Neuroinflammation. J Med Chem. 2018;61:3008-3026). PF-06795071 was prepared as a transparent solution in a vehicle of DMSO/Cremophor/saline (v/v/v=5/5/90). The animal was treated with escalating doses of PF-06795071 (0.002, 0.01, 0.05, 0.2 and 2 mg/kg) 1 hour prior to the administration of [^18F]-II (4.15-11.13 MBq, 6.84-13.19 nmol/kg). The in vivo PET scans and data reconstruction were carried out as described in Example 9. The SUVs from the whole brain TACs was averaged from 0-90 min to obtain SUV0-90 min in receptor occupancy study as previously detailed by Krämer et al. (Krämer SD, Betzel T, Mu L, et al. Evaluation of ^11C-Me-NB1 as a Potential PET Radioligand for Measuring GluN2B-Containing NMDA Receptors, Drug Occupancy, and Receptor Cross Talk. J Nucl Med. 2018;59:698-703). The non-linear curve was fitted with GraphPad Prism Software (version 8.3.4, GraphPad Software Inc) for D50 value.

[4] = biological target: T3, MAGL (Rattus norvegicus, UniProt Q8R431); experiment: In vitro autoradiography blockade on rat brain section; type: binding; conditions: 10 μM blocker
T3 construct: from tissue; host or cells: Wistar rat brain sections
T3 sequence (Q8R431 1-303): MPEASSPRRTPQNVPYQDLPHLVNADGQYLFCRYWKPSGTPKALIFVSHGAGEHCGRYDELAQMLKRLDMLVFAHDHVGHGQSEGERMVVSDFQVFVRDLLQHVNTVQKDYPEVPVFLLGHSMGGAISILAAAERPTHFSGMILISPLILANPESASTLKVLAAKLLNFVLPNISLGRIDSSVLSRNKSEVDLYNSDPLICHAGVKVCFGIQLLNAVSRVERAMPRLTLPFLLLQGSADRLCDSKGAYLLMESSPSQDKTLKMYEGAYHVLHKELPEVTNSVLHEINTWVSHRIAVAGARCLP

[5] = tested on: MAGL
Method: Frozen brain tissues of Wistar rats or mouse were cut in the thickness of 10 μm on a cryostat (Cryo-Star HM 560 MV; Microm, Thermo Scientific, Wilmington, DE), and stored at −20° C. before use. Before the experiments, the slices were thawed on ice for 10 min and subsequently immersed into aqueous 50 mM Tris buffer (pH 7.4, 30 mM HEPES, 1.2 mM MgCl2, 110 mM NaCl, 5 mM KCl, 2.5 mM CaCl2) containing 3% fatty acid free bovine serum albumin (BSA) at 0° C. for 10 min for precondition. Upon drying, incubation was carried out in a humidified chamber with the radiotracer at room temperature for 30 min. […] The slices were decanted after incubation, and washing procedure was conducted. The slices were left to dry before attaching to phosphor imager plates (Fuji, Dielsdorf, Switzerland), and exposure was lasted for 60 min. The films were later scanned by BAS5000 reader (Fuji), and data analysis was performed using AIDA 4.50.010 software (Raytest Isotopenmessgerate GmbH, Straubenhardt, Germany).

[6] = tested on: MAGL; experiment: In vivo PET scans in MAGL KO and WT mice; conditions: mouse brain, at 1 min p.i., intravenous
Method: The animal was anesthetized using isoflurane and placed in the PET/CT scanner (Super Argus, Sedecal, Madrid, Spain). The radiotracer was injected intravenously, and data was acquired at 1 min post-injection. The dynamic PET scan lasted 60 min for [^11C]-I, while it's prolonged to 90 min for [^18F]-II and [^18F]-III. […] The regions of interest (ROI) were defined on an MRI T2 (W.Schiffer) template provided by PMOD v4.002 (PMOD Technologies, Zurich, Switzerland) to generate the corresponding time acitivity curves (TACs). The radioactivity accumulations in the whole brain and different regions were expressed as standardized uptake values (SUVs), which is the decay-corrected regional radioactivity normalized to the injected radioactivity and body weight.

[7] = tested on: MAGL; conditions: reported in Hattori et al., J Med Chem 2019; cited from earlier work

COc1cccc(-c2ccc(N3C[C@H](N4CCN(C(=O)c5ccco5)CC4)CC3=O)cc2)c1 [I, (R)-4-(4-(Furan-2-carbonyl)piperazin-1-yl)-1-(3′-methoxy-[1,1′-biphenyl]-4-yl)pyrrolidin-2-one]
pIC50 [1]: 8.37
pIC50 [2]: 8.19

O=C(c1ccco1)N1CCN([C@@H]2CC(=O)N(c3ccc(-c4cccc(F)c4)cc3)C2)CC1 [III, (R)-1-(3′-Fluoro-[1,1′-biphenyl]-4-yl)-4-(4-(furan-2-carbonyl)piperazin-1-yl)pyrrolidin-2-one]
pIC50 [1]: 7.95
pIC50 [2]: 7.94

O=C(O[C@H](CO)C(F)(F)F)N1C[C@@H]2C(c3ccn(-c4ccc(F)cc4)n3)[C@@H]2C1 (stereo partly shown) [PF-06795071]
effect on [^18F]-II accumulation in the mouse brain ([3]; 0.002 to 2 mg/kg): dose-dependent reduction
required dose to occupy 50% MAGL in the mouse brain (D50) ([3]; given 1 hour prior to [^18F]-II, SUV0-90 min whole brain): 0.034 mg/kg

O=C(OC(C(F)(F)F)C(F)(F)F)N1CCC(CNS(=O)(=O)c2ccc(Cl)cc2)CC1 [SAR127303]
blockade of specific binding of [^11C]-I [4]: substantial reduction and homogenous distribution of the radioactivity

[11CH3]Oc1cccc(-c2ccc(N3C[C@H](N4CCN(C(=O)c5ccco5)CC4)CC3=O)cc2)c1 [[^11C]-I, (R)-4-(4-(furan-2-carbonyl)piperazin-1-yl)-1-(3′-(methoxy-^11C)-[1,1′-biphenyl]-4-yl)pyrrolidin-2-one]
specificity and selectivity in vitro ([5]; autoradiography, blockade and MAGL KO brain section): high specificity and selectivity
distribution of radioactive signal accumulation on brain slices ([5]; ~1 nM radiotracer, mouse or rat brain slice): heterogeneous distribution of radioactive signal accumulation, which matched to the MAGL expression pattern in rodents
SUVmax (brain uptake) [6]: ~1.32

O=C(c1ccco1)N1CCN([C@@H]2CC(=O)N(c3ccc(-c4cccc([18F])c4)cc3)C2)CC1 [[^18F]-III]
SUVmax (brain uptake) [6]: ~1.63

O=C(c1ccco1)N1CCN([C@@H]2CC(=O)N(c3ccc(-c4ccc([18F])cc4)cc3)C2)CC1 [[^18F]-II]
SUVmax (brain uptake) [6]: ~1.56

Cc1ccnc([18F])c1-c1cccc(N2C[C@H](N3CCN(C(=O)c4nccs4)CC3)CC2=O)c1 [[^18F]T-401, (4R)-1-{3-[2-(^18F)Fluoro-4-methylpyridin-3-yl]phenyl}-4-[4-(1,3-thiazol-2-ylcarbonyl)piperazin-1-yl]pyrrolidin-2-one]
SUVmax (brain uptake), literature [7]: ~0.7
